From US20080241254A1, “PHARMACEUTICAL COMPOSITION COMPRISING ATOVAQUONE PARTICLES” (priority 2007, published 2008)

Tests used:
[1] = cited from earlier work
[2] = single oral dose, presence of fatty food; cited from earlier work
[3] = Particle size of atovaquone particles, light scattering (Malvern Mastersizer); format: physicochemical; settings: milled atovaquone particles before formulation
Text: Conventionally known particle size analysis methods can be used suitably for determining the particle size. For example, particle size measurement can be done using light-scattering methods and turbidimetric methods, sedimentation methods, such as pipette analysis technique using an Andreassen pipette, sedimentation scales, photosedimentometers and sedimentation in a centrifugal force field, pulse methods, for example using a Coulter counter, or sorting by means of gravitational or centrifugal force.
The term “d9o value” means at least 90% of atovaquone particles have volume diameter less than specified value when measured by a light scattering method, for example, Malvern Mastersizer.
Atovaquone was air jet milled using at inlet feeder air pressure of 6 kg/cm2 and inlet miller air pressure of 8 kg/cm2 at the rate of 100 g/hour. After one cycle the contents were again milled through air jet mill for second cycle to obtain the desired particle size.

- d90 particle size [3]: 5.34 μm
- d50 particle size ([3]; measured by Malvern): 2.42 μm
SMILES: O=C1C(O)=C(C2CCC(c3ccc(Cl)cc3)CC2)C(=O)c2ccccc21 (stereo not shown) [Atovaquone, 2-[4-(4-chlorophenyl)cyclohexyl]-3-hydroxy-1,4-naphthoquinone]
- aqueous solubility [1]: low aqueous solubility
- effect of fatty food on absorption [2]: increased about threefold
